Experimental data reported in US20240383910A1, “SMALL MOLECULE BTK DEGRADERS AND METHODS OF USE THEREOF” (Baylor College of Medicine, priority 2023, published 2024).
Where “and” joins values, the source holds several entries; their conditions need not be identical. Equal values may be shown once. Read-outs that look alike come from different tables or passages of the source.

Columns and labels:
[1] = system: Mino cells; experiment: cells; settings: Homo sapiens, 72 h
Source text: (§7) The cell viabilities were quantified using an Alarma Blue assay.
(§8) Dataset represents an average of n=3 replicates.

[2] = molecular target: T1, His-BTK (Homo sapiens, UniProt Q06187); experiment: TR-FRET competition binding assay with BTK-BODIPY tracer; settings: for binding to BTK (result in words): TRFRET assay, up to 100 μM; for IC50: TR-FRET, 2 nM His-BTK, 150 nM BTK-BODIPY tracer, 2 h incubation
T1 construct: purchased SignalChem B10-10H-10
T1 sequence (Q06187 whole entry): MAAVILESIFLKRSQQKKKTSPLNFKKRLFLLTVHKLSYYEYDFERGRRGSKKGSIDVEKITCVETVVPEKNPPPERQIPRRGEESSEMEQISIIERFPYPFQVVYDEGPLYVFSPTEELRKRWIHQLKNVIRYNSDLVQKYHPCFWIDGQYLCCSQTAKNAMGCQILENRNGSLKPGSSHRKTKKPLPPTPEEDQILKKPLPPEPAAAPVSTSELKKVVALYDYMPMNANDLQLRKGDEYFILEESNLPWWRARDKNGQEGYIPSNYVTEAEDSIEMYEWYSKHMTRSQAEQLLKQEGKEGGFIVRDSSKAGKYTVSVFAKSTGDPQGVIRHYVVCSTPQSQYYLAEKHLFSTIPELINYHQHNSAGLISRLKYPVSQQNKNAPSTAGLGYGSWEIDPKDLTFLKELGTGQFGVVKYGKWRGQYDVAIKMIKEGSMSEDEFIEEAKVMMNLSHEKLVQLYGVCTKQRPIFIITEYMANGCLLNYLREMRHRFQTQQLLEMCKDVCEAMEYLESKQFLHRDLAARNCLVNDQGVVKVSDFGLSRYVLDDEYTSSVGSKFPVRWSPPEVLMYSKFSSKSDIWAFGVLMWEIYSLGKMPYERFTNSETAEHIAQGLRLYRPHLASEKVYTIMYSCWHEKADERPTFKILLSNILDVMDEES
Experimental: (§1) Panels a-b. […] Panel c. […] Panel d. […] Panel e. […] Panel f.
Time-resolved fluorescence resonance energy transfer (TR-FRET) assay was carried out to evaluate the binding of indicated compounds and BTK by competition with a BODIPY-FL labeled BTK tracer (See FIG. 1, BTK TR-FRET tracer). The assay was performed in 20 μL assay buffer (50 mM Tris, pH7.5, 0.1% Triton X-100, 0.01% BSA, and 1 mM DTT) with 0.3 nM Tb-anti-His (Cisbio, Cat. No. 61HI2TLA), 2 nM His-BTK (SignalChem, Cat. No. […] Unless specified otherwise, all assays were performed in triplicates. The assay mixtures were incubated at room temperature in the dark for 120 min, unless specified otherwise, and the signals were collected using a BioTek Synergy H1 microplate reader to measure the fluorescence emission ratio ([…]) of each well, using a 340-nm excitation filter, a 100-μs delay, and a 200-μs integration time. Raw data from the plate reader were used directly for analysis. The curve-fitting software GraphPad Prism 9 was used to generate graphs and curves and to determine IC50 values.
To measure the binding affinities between PROTACs and BTK, a time-resolved fluorescence resonance energy transfer (TR-FRET) competition binding assay was developed. A BTK tracer was synthesized by conjugating an ibrutinib-based reversible noncovalent binder with the BODIPY-FL dye (FIG. 1). […] In the presence of the BTK tracer, competition assays were performed to measure the binding affinities between BTK and its inhibitors and PROTACs. […] The very weak BTK binding affinities for PS-RC-1, PS-RC-2, PS-RC-3 and PS-RC-4 explain their minimal BTK degradation effects in cells and further support that the observed growth inhibitory effect of PS-RC-1 in Mino cells is unrelated to the BTK pathway.

[3] = molecular target: T2, BTK (Homo sapiens, UniProt Q06187); experiment: Western blotting for BTK in Ramos cells; type: cell-based; set-up: host or cells: Ramos; settings: Ramos cells, 40, 200 and 1000 nM, 24 h, Western blot
T2 sequence (Q06187 whole entry): as above
Experimental: (§2) CC-220 is a IKZF1/3 degrader developed by Celgene and used for comparison.
(§3) In contrast, PS-3, whose warhead is further reduced compared with PS-2, loses its ability to function as either a BTK degrader or a potent IKZF1/3 molecular glue. To confirm this observation, BTK degradation induced by PS-1, PS-2, and PS-3 was tested in both a human B lymphocyte cell line Ramos and mouse BALB/c B cell lymphoma line A20, with DD-03-171 from the Gray group as a positive control (FIG. 5).

[4] = molecular target: T3, BTK (Mus musculus, UniProt P35991); experiment: Western blotting for BTK in A20 cells; type: cell-based; settings: A20 cells, 40, 200 and 1000 nM, 24 h, Western blot
T3 construct: host or cells: A20
T3 sequence (P35991 whole entry): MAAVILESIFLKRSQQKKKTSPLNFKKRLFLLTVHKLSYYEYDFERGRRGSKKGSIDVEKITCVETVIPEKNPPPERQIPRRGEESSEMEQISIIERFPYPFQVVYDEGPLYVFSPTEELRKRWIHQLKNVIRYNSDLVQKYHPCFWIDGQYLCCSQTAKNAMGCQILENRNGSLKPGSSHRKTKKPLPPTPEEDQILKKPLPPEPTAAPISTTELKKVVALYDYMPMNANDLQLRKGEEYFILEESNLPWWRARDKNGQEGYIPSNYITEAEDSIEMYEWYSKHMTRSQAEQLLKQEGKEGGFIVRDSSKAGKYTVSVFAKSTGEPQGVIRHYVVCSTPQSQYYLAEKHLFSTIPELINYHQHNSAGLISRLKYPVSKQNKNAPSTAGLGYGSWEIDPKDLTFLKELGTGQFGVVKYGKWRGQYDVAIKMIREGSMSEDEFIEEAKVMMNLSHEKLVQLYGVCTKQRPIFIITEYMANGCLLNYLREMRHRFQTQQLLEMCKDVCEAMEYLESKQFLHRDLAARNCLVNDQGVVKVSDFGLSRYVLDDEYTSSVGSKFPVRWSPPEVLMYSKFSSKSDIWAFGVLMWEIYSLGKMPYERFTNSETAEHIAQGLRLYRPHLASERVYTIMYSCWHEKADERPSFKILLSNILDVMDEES
Experimental: as §2, §3

[5] = system: MM.1S cells; experiment: Alarma Blue cell viability assay, MM.1S cells; type: cell-based; settings: Homo sapiens, MM1.S, 120 h, read-out: IC50, cell growth inhibition
Source text: (§4) Panel a. […] Panel b. […] Panel c. […] Panel d-e. […] Panel g.

[6] = system: Rec-R cells; experiment: Alarma Blue cell viability assay, Rec-R cells; type: cell-based; settings: 72 h
[7] = system: Jeko-1 cells; experiment: Alarma Blue cell viability assay, Jeko-1 cells; type: cell-based; settings: 72 h
[8] = system: Mino cells; settings: Mino cells pretreated with PS-RC-Ctrl 2 and 10 μM for 2 h
Source text: as §7, §8

[9] = molecular target: T4, GSPT1 (Homo sapiens, UniProt P15170+Q96SW2); experiment: Western blotting for GSPT1 in Mino cells; type: cell-based; settings: up to 1000 nM, 24 h, Western blot
T4 construct: host or cells: Mino
T4 sequence (P15170 whole entry): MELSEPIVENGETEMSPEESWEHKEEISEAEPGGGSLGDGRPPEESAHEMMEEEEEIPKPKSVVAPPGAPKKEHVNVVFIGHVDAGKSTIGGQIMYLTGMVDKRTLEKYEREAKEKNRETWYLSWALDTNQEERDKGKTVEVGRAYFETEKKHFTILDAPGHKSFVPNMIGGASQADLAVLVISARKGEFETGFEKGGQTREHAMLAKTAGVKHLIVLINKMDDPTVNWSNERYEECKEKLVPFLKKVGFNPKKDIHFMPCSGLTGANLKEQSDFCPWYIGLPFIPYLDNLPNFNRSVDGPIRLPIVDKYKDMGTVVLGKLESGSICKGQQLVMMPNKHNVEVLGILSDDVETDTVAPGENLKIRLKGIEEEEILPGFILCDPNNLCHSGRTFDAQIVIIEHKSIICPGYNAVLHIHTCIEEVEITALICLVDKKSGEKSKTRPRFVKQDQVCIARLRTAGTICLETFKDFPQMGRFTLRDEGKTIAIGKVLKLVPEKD
T4 sequence (Q96SW2 whole entry): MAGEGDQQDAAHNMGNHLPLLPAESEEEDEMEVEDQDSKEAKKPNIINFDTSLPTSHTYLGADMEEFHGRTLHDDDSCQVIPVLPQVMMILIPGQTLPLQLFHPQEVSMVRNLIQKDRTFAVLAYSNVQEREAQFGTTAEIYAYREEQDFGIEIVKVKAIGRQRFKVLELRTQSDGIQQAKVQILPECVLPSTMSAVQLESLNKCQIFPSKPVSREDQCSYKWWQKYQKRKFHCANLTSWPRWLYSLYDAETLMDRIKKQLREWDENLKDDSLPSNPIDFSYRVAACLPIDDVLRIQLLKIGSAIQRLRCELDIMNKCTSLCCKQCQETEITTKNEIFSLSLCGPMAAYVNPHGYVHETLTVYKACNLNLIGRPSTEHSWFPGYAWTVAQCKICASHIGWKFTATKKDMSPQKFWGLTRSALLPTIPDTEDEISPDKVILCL
T4 sequence (Q16531 whole entry partner): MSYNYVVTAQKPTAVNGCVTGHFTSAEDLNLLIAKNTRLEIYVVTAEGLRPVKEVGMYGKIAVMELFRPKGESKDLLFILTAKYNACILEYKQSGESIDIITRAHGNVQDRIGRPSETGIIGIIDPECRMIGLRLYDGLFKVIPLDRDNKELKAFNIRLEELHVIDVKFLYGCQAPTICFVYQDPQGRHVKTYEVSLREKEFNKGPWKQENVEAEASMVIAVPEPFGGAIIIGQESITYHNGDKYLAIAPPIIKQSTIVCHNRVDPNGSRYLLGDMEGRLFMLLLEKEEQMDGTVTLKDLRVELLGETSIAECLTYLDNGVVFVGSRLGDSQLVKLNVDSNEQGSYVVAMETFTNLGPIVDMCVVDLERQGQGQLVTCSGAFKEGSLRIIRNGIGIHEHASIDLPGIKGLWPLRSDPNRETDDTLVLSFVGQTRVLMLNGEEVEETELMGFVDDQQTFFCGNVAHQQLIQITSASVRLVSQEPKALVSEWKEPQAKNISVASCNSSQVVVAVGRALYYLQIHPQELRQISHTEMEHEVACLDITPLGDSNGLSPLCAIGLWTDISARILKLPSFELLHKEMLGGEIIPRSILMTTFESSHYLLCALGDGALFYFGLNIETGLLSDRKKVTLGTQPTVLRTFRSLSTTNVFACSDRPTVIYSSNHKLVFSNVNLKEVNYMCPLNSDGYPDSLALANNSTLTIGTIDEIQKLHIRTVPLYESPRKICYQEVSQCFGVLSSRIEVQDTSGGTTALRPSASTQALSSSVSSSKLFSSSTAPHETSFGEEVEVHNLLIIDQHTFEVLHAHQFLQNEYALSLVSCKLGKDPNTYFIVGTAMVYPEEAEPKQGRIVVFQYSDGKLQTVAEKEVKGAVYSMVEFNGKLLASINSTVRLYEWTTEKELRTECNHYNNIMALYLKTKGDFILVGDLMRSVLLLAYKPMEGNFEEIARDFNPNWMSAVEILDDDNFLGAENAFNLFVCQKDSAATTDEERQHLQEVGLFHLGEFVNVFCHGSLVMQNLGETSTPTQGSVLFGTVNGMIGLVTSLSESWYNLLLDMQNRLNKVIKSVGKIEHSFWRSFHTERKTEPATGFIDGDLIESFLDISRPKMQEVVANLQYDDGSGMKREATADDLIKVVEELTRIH
Experimental: as §4
Mino cells were seeded into the wells of six-well plates at the density of 5×10^5 cells per mL in 2 mL of complete RPMI-1640 culture medium. After overnight adaptation, cells were treated with serially diluted compounds (from 1,000-1.6 nM, 5-fold dilution) for 24 hours. After treatment, whole cell lysates for immunoblotting were prepared by pelleting Mino cells at 4° C. and 200×g for 5 minutes. The resulting cell pellets were washed once with ice-cold PBS and lysed in 1×RIPA lysis buffer (Alfa Aesar, Cat. No. J62524) supplemented with protease and phosphatase inhibitor cocktail (Thermo Fisher, Cat. No. 78430). Lysates were centrifuged at 15,000×g for 10 min at 4° C. and protein concentrations were assessed using BCA assay (Pierce, Cat. No. 23225). Same amounts of protein (30 μg) for each sample were loaded onto sodium dodecyl sulfate-polyacrylamide gel, separated by electrophoresis (Bio-Rad) at 120 V for 1.5 h and transferred to PVDF membrane using a Transblot Turbo system (Bio-Rad). […] All Western blots were subsequently processed and quantified with Imager software ImageJ and protein level was normalized to the B-actin loading controls.

[10] = molecular target: T2, BTK; experiment: Western blotting for BTK in Mino cells; type: cell-based; set-up: host or cells: Mino; settings: up to 1000 nM, 24 h, Western blot
Experimental: Mino cells were seeded into the wells of six-well plates at the density of 5×10^5 cells per mL in 2 mL of complete RPMI-1640 culture medium. After overnight adaptation, cells were treated with serially diluted compounds (from 1,000-1.6 nM, 5-fold dilution) for 24 hours. After treatment, whole cell lysates for immunoblotting were prepared by pelleting Mino cells at 4° C. and 200×g for 5 minutes. The resulting cell pellets were washed once with ice-cold PBS and lysed in 1×RIPA lysis buffer (Alfa Aesar, Cat. No. J62524) supplemented with protease and phosphatase inhibitor cocktail (Thermo Fisher, Cat. No. 78430). Lysates were centrifuged at 15,000×g for 10 min at 4° C. and protein concentrations were assessed using BCA assay (Pierce, Cat. No. 23225). Same amounts of protein (30 μg) for each sample were loaded onto sodium dodecyl sulfate-polyacrylamide gel, separated by electrophoresis (Bio-Rad) at 120 V for 1.5 h and transferred to PVDF membrane using a Transblot Turbo system (Bio-Rad). After blocking for 1 h at room temperature in 1% BSA-TBST, the membranes were immunoblotted with the specified primary antibodies at the dilution of 1:1000 in TBST (Cell Signaling Technology: anti-BTK Cat. No. 8547, anti-IKZF1 Cat. No. 14859, anti-IKZF3 Cat. No. 15103, anti-β-actin Cat. No. 4570, Proteintech: anti-GSPT1, Cat. No. 10763-1-AP) overnight at 4° C. and the HRP-conjugated secondary antibodies (Cell Signaling, Cat. No. 7074, 1:1000 in TBST) for 1 h at room temperature. Imaging was performed using the ECL Prime chemiluminescent Western blot detection reagents (Kindle Biosciences, Cat. No. R1100) by visualization of the blots with an Imager (Kindle Biosciences, Cat. No. D1001). All Western blots were subsequently processed and quantified with Imager software ImageJ and protein level was normalized to the B-actin loading controls.

[11] = molecular target: T5, IKZF1-nLuc (Homo sapiens, UniProt Q13422+Q96SW2); experiment: IKZF1-nLuc degradation kinetics assay in HEK-293T cells; type: cell-based; settings: HEK-293T, read-out: IKZF1-nLuc Degradation Kinetics Dmax
T5 construct: Addgene (vector) HsCD00512327; pLenti6.2-ccdB-Nanoluc 87078; host or cells: HEK-293T17
T5 sequence (Q13422 whole entry): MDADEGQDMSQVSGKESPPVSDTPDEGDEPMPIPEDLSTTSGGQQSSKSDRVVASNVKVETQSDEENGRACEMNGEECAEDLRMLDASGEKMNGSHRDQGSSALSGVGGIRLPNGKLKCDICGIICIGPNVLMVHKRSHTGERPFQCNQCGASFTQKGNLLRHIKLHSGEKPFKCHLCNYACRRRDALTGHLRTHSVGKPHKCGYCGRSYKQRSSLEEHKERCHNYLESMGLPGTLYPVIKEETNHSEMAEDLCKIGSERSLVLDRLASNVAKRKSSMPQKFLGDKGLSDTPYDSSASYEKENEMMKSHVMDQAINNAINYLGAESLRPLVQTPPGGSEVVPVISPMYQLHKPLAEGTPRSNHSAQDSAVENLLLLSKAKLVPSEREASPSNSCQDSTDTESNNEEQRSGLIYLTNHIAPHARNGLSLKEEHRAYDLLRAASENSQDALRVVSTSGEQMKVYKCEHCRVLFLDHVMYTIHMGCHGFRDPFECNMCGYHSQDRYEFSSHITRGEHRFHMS
T5 sequence (Q96SW2 whole entry): as the sequence (Q96SW2 whole entry) above
T5 sequence (Q16531 whole entry partner): as the sequence (Q16531 whole entry partner) above
Source text: as §4

[12] = molecular target: T6, IKZF3-nLuc (Homo sapiens, UniProt Q96SW2+Q9UKT9); experiment: IKZF3-nLuc degradation kinetics assay in HEK-293T cells; type: cell-based; settings: HEK-293T, read-out: IKZF3-nLuc Degradation Kinetics Dmax
T6 construct: Addgene (vector) HsCD00513042; pLenti6.2-ccdB-Nanoluc 87078; host or cells: HEK-293T17
T6 sequence (Q9UKT9 whole entry): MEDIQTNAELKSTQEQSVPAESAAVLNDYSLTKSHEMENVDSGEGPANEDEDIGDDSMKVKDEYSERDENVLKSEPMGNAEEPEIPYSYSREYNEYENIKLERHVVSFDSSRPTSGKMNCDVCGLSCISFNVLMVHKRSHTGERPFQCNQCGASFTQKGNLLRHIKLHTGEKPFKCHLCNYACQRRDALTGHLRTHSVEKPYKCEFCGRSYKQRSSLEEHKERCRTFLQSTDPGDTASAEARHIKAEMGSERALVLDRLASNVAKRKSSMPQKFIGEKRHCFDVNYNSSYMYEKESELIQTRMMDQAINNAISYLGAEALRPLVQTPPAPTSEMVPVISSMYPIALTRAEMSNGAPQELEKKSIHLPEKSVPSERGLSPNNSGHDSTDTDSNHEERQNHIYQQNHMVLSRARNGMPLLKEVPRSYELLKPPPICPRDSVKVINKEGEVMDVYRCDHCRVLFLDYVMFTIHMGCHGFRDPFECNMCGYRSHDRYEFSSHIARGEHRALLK
T6 sequence (Q96SW2 whole entry): as the sequence (Q96SW2 whole entry) above
T6 sequence (Q16531 whole entry partner): as the sequence (Q16531 whole entry partner) above
Source text: as §4

[13] = molecular target: T7, IKZF3 (Homo sapiens, UniProt Q96SW2+Q9UKT9); experiment: Western blotting for IKZF3 in Mino cells; type: cell-based; settings: 24 h, Western blot, read-out: IKZF3-WB Endpoint Dmax
T7 construct: host or cells: Mino
T7 sequence (Q9UKT9 whole entry): as the sequence (Q9UKT9 whole entry) above
T7 sequence (Q96SW2 whole entry): as the sequence (Q96SW2 whole entry) above
T7 sequence (Q16531 whole entry partner): as the sequence (Q16531 whole entry partner) above
Experimental: as §4
(§5) After treatment, whole cell lysates for immunoblotting were prepared by pelleting Mino cells at 4° C. and 200×g for 5 minutes. […] Imaging was performed using the ECL Prime chemiluminescent Western blot detection reagents (Kindle Biosciences, Cat. No. R1100) by visualization of the blots with an Imager (Kindle Biosciences, Cat. No. D1001). All Western blots were subsequently processed and quantified with Imager software ImageJ and protein level was normalized to the B-actin loading controls.

[14] = molecular target: T6, IKZF3-nLuc; experiment: IKZF3-nLuc endpoint degradation assay in HEK-293T cells; type: cell-based; settings: HEK-293T, read-out: IKZF3-nLuc Endpoint Dmax
Experimental: as §4
(§6) The nanoluc activity was determined using the furimazine substrate (Promega, Cat. No. N1110). Briefly, after 4 h incubation of indicated compounds, cells were directly lysed by addition of 100 μL of nanoluciferase detection solution, containing lysis buffer and furimazine (1/50 dilution). For the 24-hour treatment group, the old medium was replaced with 100 μL fresh opti-MEM, followed by the addition of equal volume of lysis buffer plus furimazine (1/50 dilution).

[15] = molecular target: T8, IKZF1 (Homo sapiens, UniProt Q13422+Q96SW2); experiment: Western blotting for IKZF1 in Mino cells; type: cell-based; settings: 24 h, Western blot, read-out: IKZF1-WB Endpoint Dmax
T8 construct: host or cells: Mino
T8 sequence (Q13422 whole entry): as the sequence (Q13422 whole entry) above
T8 sequence (Q96SW2 whole entry): as the sequence (Q96SW2 whole entry) above
T8 sequence (Q16531 whole entry partner): as the sequence (Q16531 whole entry partner) above
Experimental: as §4, §5

[16] = molecular target: T5, IKZF1-nLuc; experiment: IKZF1-nLuc endpoint degradation assay in HEK-293T cells; type: cell-based; settings: HEK-293T, read-out: IKZF1-nLuc Endpoint Dmax
Experimental: as §4, §6

[17] = system: MOLM-14 cells; experiment: Alarma Blue cell viability assay, MOLM14 cells; type: cell-based; settings: Homo sapiens, 72 h, read-out: IC50, cell growth inhibition
Source text: as §1

O=C1CCC(N2C(=O)c3cccc(NCC(=O)N4CCN(c5ccc(Nc6nc(Oc7ccccc7)c7occc7n6)cc5)CC4)c3C2=O)C(=O)N1 (stereo not shown) [PS-1, 2-(2,6-Dioxopiperidin-3-yl)-4-((2-oxo-2-(4-(4-((4-phenoxyfuro[3,2-d]pyrimidin-2-yl)amino)phenyl)piperazin-1-yl)ethyl)amino)isoindoline-1,3-dione]
IC50 ([1]; read-out: IC50, cell growth inhibition / cell viability, Mino cells, 72 h): 16 nM | binding to BTK (result in words) [2]: almost no binding to BTK | BTK degradation (result in words) [3]: very weak or no BTK degradation | BTK degradation (result in words) [4]: very weak or no BTK degradation | IC50 [5]: 3 nM

CC(C)(C)/C=C(\C#N)C(=O)Nc1cccc(Oc2nc(Nc3ccc(N4CCN(C(=O)CNc5cccc6c5C(=O)N(C5CCC(=O)NC5=O)C6=O)CC4)cc3)nc3ccoc23)c1 (stereo not shown) [PS-RC-1, (E)-2-cyano-N-(3-((2-((4-(4-((2-(2,6-dioxopiperidin-3-yl)-1,3-dioxoisoindolin-4-yl)glycyl)piperazin-1-yl)phenyl)amino)furo[3,2-d]pyrimidin-4-yl)oxy)phenyl)-4,4-dimethylpent-2-enamide]
response of cell growth to compound [6]: poorly respond | response of cell growth to compound [7]: poorly respond | IC50 shift upon PS-RC-Ctrl pre-treatment [8]: An appreciable IC50 shift was not observed | GSPT1 degradation (result in words) [9]: does not degrade GSPT1 | BTK degradation (result in words) [10]: none of the tested PROTACs induce appreciable BTK degradation

Nc1cccc2c1C(=O)N(C1CCC(=O)NC1=O)C2=O (stereo not shown) [Pomalidomide, reference compound]
IC50 ([1]; read-out: IC50, cell growth inhibition / cell viability): 329 nM | response of cell growth to compound [6]: only Mino cells are responsive | Dmax at 0.04 µM [11]: 53% | Dmax at 0.2 µM [11]: 80% | Dmax at 0.04 µM [12]: 52% | Dmax at 0.2 µM [12]: 64% | response of cell growth to compound [7]: only Mino cells are responsive | Dmax [13]: 96% | Dmax [14]: 94% | Dmax [15]: 96% | Dmax [16]: 90%

C=CC(=O)Nc1cccc(Oc2nc(Nc3ccc(N4CCN(C)CC4)cc3)nc3ccoc23)c1 [Poseltinib]
IC50 [2]: 1.21 nM | IC50 ([2]; listed as poseltinib): 1.1 nM and 1.2 nM | binding to BTK (result in words) [2]: binding affinity in the nM range | IC50 [17]: 2900 nM
